# Measurements: patent publication US20220142959A1, “LEUCINE, ACETYL LEUCINE, AND RELATED ANALOGS FOR TREATING DISEASE” (priority 2019, published 2022)
# Assays:
# [1] = CCI induced TBI mice: food intake and body weight; type: in vivo; settings: data not shown
# Protocol: (§1) Controlled cortical impact (CCI) induced TBI was performed in male C57BL6/J mice (20-25 g). Briefly, after a 10-mm midline incision was made over the skull, the skin and fascia were retracted, and a 4-mm craniotomy was made on the central aspect of the left parietal bone of mice under surgical anesthesia (2-3% isoflurane evaporated in a gas mixture containing 70% N20 and 30% 02). Moderate injury was induced in the exposed brain by a custom microprocessor-controlled and compressed air driven pneumatic impactor of 3.5 mm diameter tip with the impact velocity of 6 m/s and a deformation depth of 2 mm.
# (§2) N-Acetyl-L-Leucine (“NAL” or “NALL”) was dissolved in ethanol to prepare a 50 mg/ml solution which was then diluted in water to give a 10 mg/ml solution. About 0.25 ml of the NAL solution (10 mg/ml) was orally administered in mice at a […] (2.5 mg NAL/25 g mouse) via oral gavage each day after CCI induced TBI for 4 days. Mice were also fed with NAL at 0.5 mg/kg chow powder chow mixed with diet gel for up to 7 days after injury.
# TUNEL positive cells = assay: TUNEL assay on brain sections after CCI induced TBI; type: in vivo; settings: injured mice fed with NALL vs vehicle fed TBI mice
# Protocol: as §1, §2
# The level of α-fodrin cleavage products in NALL treated, vehicle treated sham, and TBI mouse cortices were determined by Western blot analysis and using the TUNEL assay to assess whether NALL treatment decreases cortical cell death after TBI. […]
# LC3-II and p62/SQSTM1 = assay: Western blot of autophagy flux markers in cortex after CCI induced TBI; type: in vivo, mice
# Protocol: as §1, §2
# Around 5 mm tissue of ipsilateral cortex around the site of injury from TBI mice or the corresponding tissue of same volume around the same cortical region from sham mice were dissected and processed. […] Protein bands were detected using chemiluminiscence kit (Pierce, 34076) and visualized using Chemi-doc system (Bio-Rad). Band intensity was analyzed using Image Lab software (Bio-Rad) and normalized to loading control (β-Actin). […]
# Autophagy is a lysosome dependent cellular degradation process that is disrupted due to lysosomal damage after TBI. […] Whether attenuation of cell death following NALL treatment in TBI mice is mediated through the restoration of autophagy flux was assessed.
# The levels of LC3-II and p62/SQSTM1 in the cortical tissue lysates prepared from vehicle and NAL fed naïve and TBI mice were determined by western blot analysis. A decrease in the levels of LC3-II in the brain of NALL fed mice as compared to vehicle treated mice at day 1 after TBI was detected. […]
# [2] = test system: rat primary cortical neurons; assay: U18666A-mediated impairment of lysosomal fusion in rat primary cortical neurons; type: cell-based; settings: co-treated with U18666A (2 μg/mL) and compound 1 mM, 24 h
# Protocol: (§3) FIG. 18. is a histogram of the ratio of LC3-II normalised to βIII tubulin (expressed as a percentage of untreated (n=1)) in rat primary cortical neurons that were treated with U18666A (2 μg/ml, 24 hr) in the absence or presence of ADLL, ALL, ADL, DLL, LL, DL, and LLE (1 mM, 24 hr).
# as §3, with “19” for “18.”, “is” for “is a”, “APP-CTFs-6 and -7” for “LC3-II”, “their respective CTFs in untreated cells” for “βIII tubulin”, “(n=1)” for “(n=1))”
# The efficacy of ADLL, ALL, ADL, DLL, LL, DL, and LLE in alleviating the U18666A-mediated impairment of autophagosome-lysosome fusion and endosomal lysosomal fusion was investigated. In this cell-based assay of impaired EAL flux, the reappearance of basal levels of APP CTFs-6 and -7, provided an indication of improved endosomal-lysosomal fusion.
# Neurons were co-treated with U18666A (2 μg/mL) along with ADLL, ALL, ADL, DLL, LL, DL, and LLE (1 mM, 24 h).
# [3] = test system: CD68 positive activated microglia; assay: CD68 positive activated microglia in cerebellum of Npc1−/− mice; type: in vivo; settings: 59 days of age, compared to Npc1−/− UT
# Description: FIG. 46 is an image showing cerebellar Purkinje cell loss progressing from anterior to posterior lobes and microglial activation in untreated Npc1^−/− mice and Npc1^−/− mice treated with ADLL, ALL, and ADL. Cerebellums were stained with calbindin-b (Purkinje cells) or CD68 (activated microglia).
# FIG. 48 is a scatter graph showing frequency of CD68 positive activated microglia at 59 days of age in untreated Npc1^−/− mice and Npc1^−/− mice treated with ADLL, ALL, and ADL. CD68 cell density was measured in the cerebellum. n=5 animals per group. Mean±SD, *** p<0.0009 (one-way ANOVA).
# The combination of increased survival of neurons and a less inflammatory environment in the brain could improve brain function, quality of life, and delay the progression of disease in human subjects.
# [4] = test system: rat model of an acute unilateral labyrinthectomy; settings: activation of vestibulo-cerebellum, deactivation of posterolateral thalamus; cited from earlier work
smiles,measurement,setting,value
"CC(=O)N[C@@H](CC(C)C)C(=O)O [ALL, acetyl-L-leucine]",change in body weight,[1]; NALL treated TBI mice,no appreciable change
same,food intake,[1]; sham vs TBI mice fed with NALL,No significant difference
same,TUNEL positive cells in brain sections,TUNEL positive cells,Lower levels
same,p62/SQSTM1 level in the cortex,LC3-II and p62/SQSTM1; NALL fed vs vehicle treated mice after TBI,decrease
same,levels of LC3-II in the brain,"LC3-II and p62/SQSTM1; NALL fed vs vehicle treated mice, day 1 after TBI",decrease
same,autophagy flux,LC3-II and p62/SQSTM1; mouse cortices after TBI,improves autophagy flux
same,CTF-6 and -7 (endosomal-lysosomal fusion),[2],reappearance of basal amounts
same,LC3-II levels,[2],lower than the basal levels
same,reduction of frequency of CD68 positive activated microglia,[3],20%
same,effect on postural compensation,[4],significant effect
